Measured values taken from patent publication US6737383B1, “Herbicidal oxadiazolidines” (priority 1999, dated 2004).

How the values were obtained:
crabgrass = test: Test B pre/postemergence crabgrass; format: in vivo, Digitaria sanguinalis
How it was run: (§1)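 Test chemicals in a non-phytotoxic solvent mixture with surfactant were sprayed preemergence onto planted seeds and postemergence onto plants 2 to 18 cm tall (1- to 4-leaf stage). After twelve to sixteen days in a greenhouse, injury was visually rated against untreated controls from 0 (no effect) to 10 (complete control).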

corn = test: Test B pre/postemergence corn; format: in vivo, Zea mays
How it was run: as §1

sugar beet = test: Test B pre/postemergence sugar beet; format: in vivo, Beta vulgaris
How it was run: as §1

pigweed = test: Test B pre/postemergence pigweed; format: in vivo, Amaranthus retroflexus
How it was run: as §1

wild oat = test: Test B pre/postemergence wild oat; format: in vivo, Avena fatua
How it was run: as §1

blackgrass = test: Test B pre/postemergence blackgrass; format: in vivo, Alopecurus myosuroides
How it was run: as §1

wheat = test: Test B pre/postemergence wheat; format: in vivo, Triticum aestivum
How it was run: as §1

rape = test: Test B pre/postemergence rape; format: in vivo, Brassica napus
How it was run: as §1

cocklebur = test: Test B pre/postemergence cocklebur; format: in vivo, Xanthium strumarium
How it was run: as §1

soybean = test: Test B pre/postemergence soybean; format: in vivo, Glycine max
How it was run: as §1

purple nutsedge = test: Test B pre/postemergence purple nutsedge; format: in vivo, Cyperus rotundus
How it was run: as §1

velvetleaf = test: Test B pre/postemergence velvetleaf; format: in vivo, Abutilon theophrasti
How it was run: as §1

morningglory = test: Test B pre/postemergence morningglory; format: in vivo, Ipomoea hederacea
How it was run: as §1

giant foxtail = test: Test B pre/postemergence giant foxtail; format: in vivo, Setaria faberii
How it was run: as §1

surinam grass = test: Test B pre/postemergence surinam grass; format: in vivo, Brachiaria decumbens
How it was run: as §1

bedstraw = test: Test B pre/postemergence bedstraw; format: in vivo, Galium aparine
How it was run: as §1

[1] = Postemergence, Rate 62 g/ha, scale of 0 to 10, 0 is no effect, 10 is complete control
[2] = Postemergence, Rate 125 g/ha, scale 0 to 10, 0 is no effect, 10 is complete control
[3] = Postemergence, Rate 250 g/ha, scale 0 to 10
[4] = Postemergence, Rate 500 g/ha, scale 0 to 10, 0 is no effect, 10 is complete control
[5] = Preemergence, Rate 62 g/ha, scale of 0 to 10 where 0 is no effect and 10 is complete control
[6] = Preemergence, Rate 125 g/ha, scale 0 to 10, 0 is no effect, 10 is complete control
[7] = Preemergence, Rate 500 g/ha, scale of 0 to 10 where 0 is no effect and 10 is complete control
[8] = Preemergence, Rate 250 g/ha, scale 0 to 10, 0 is no effect, 10 is complete control
[9] = Preemergence, Rate 500 g/ha, scale 0 to 10, 0 is no effect, 10 is complete control

CC(=O)OCCCCn1c(=O)on(C(=O)N(c2ccc(F)cc2F)C(C)C)c1=O [Compound 506]
Crabgrass plant response rating (crabgrass; [1]): 0 | Crabgrass plant response rating (crabgrass; [2]): 3 | Crabgrass plant response rating (crabgrass; [3]): 7 | Plant response rating, Crabgrass (crabgrass; [4]): 8 | Plant response rating, Crabgrass (crabgrass; [5]): 0 | Crabgrass plant response rating (crabgrass; [6]): 0 | Crabgrass plant response rating (crabgrass; [7]): 6 | Corn plant response rating (corn; [1]): 0 | Corn plant response rating (corn; [2]): 0 | Corn plant response rating (corn; [3]): 0 | Plant response rating, Corn (corn; [4]): 0 | Plant response rating, Corn (corn; [5]): 0 | Corn plant response rating (corn; [6]): 0 | Corn plant response rating (corn; [7]): 0 | Sugarbeets plant response rating (sugar beet; [1]): 2 | Sugarbeets plant response rating (sugar beet; [2]): 6 | Plant response rating, Sugarbeets (sugar beet; [4]): 7 | Plant response rating, Sugarbeets (sugar beet; [5]): 0 | Sugarbeets plant response rating (sugar beet; [6]): 0 | Sugarbeets plant response rating (sugar beet; [7]): 0 | Redroot pigweed plant response rating (pigweed; [1]): 0 | Redroot pigweed plant response rating (pigweed; [2]): 0 | Plant response rating, Redroot pigweed (pigweed; [4]): 0 | Plant response rating, Redroot pigweed (pigweed; [5]): 2 | Redroot pigweed plant response rating (pigweed; [6]): 8 | Redroot pigweed plant response rating (pigweed; [7]): 10 | Wild oats plant response rating (wild oat; [1]): 0 | Wild oats plant response rating (wild oat; [2]): 0 | Plant response rating, Wild oats (wild oat; [4]): 2 | Plant response rating, Wild oats (wild oat; [5]): 0 | Wild oats plant response rating (wild oat; [6]): 2 | Wild oats plant response rating (wild oat; [7]): 7 | Blackgrass plant response rating (blackgrass; [1]): 0 | Blackgrass plant response rating (blackgrass; [2]): 0 | Blackgrass plant response rating (blackgrass; [3]): 5 | Plant response rating, Blackgrass (blackgrass; [4]): 6 | Plant response rating, Blackgrass (blackgrass; [5]): 0 | Blackgrass plant response rating (blackgrass; [6]): 0 | Blackgrass plant response rating (blackgrass; [8]): 4 | Blackgrass plant response rating (blackgrass; [7]): 9 | Wheat plant response rating (wheat; [1]): 0 | Wheat plant response rating (wheat; [2]): 0 | Plant response rating, Wheat (wheat; [4]): 4 | Plant response rating, Wheat (wheat; [5]): 0 | Wheat plant response rating (wheat; [6]): 0 | Wheat plant response rating (wheat; [7]): 2 | Rape plant response rating (rape; [1]): 0 | Rape plant response rating (rape; [2]): 0 | Plant response rating, Rape (rape; [4]): 7 | Plant response rating, Rape (rape; [5]): 0 | Rape plant response rating (rape; [6]): 0 | Rape plant response rating (rape; [7]): 8 | Cocklebur plant response rating (cocklebur; [1]): 0 | Cocklebur plant response rating (cocklebur; [2]): 0 | Cocklebur plant response rating (cocklebur; [3]): 2 | Plant response rating, Cocklebur (cocklebur; [4]): 6 | Plant response rating, Cocklebur (cocklebur; [5]): 0 | Cocklebur plant response rating (cocklebur; [6]): 0 | Cocklebur plant response rating (cocklebur; [8]): 0 | Cocklebur plant response rating (cocklebur; [7]): 0 | Soybean plant response rating (soybean; [1]): 2 | Soybean plant response rating (soybean; [2]): 2 | Plant response rating, Soybean (soybean; [4]): 4 | Plant response rating, Soybean (soybean; [5]): 0 | Soybean plant response rating (soybean; [6]): 0 | Soybean plant response rating (soybean; [7]): 0 | Nutsedge plant response rating (purple nutsedge; [1]): 0 | Nutsedge plant response rating (purple nutsedge; [2]): 0 | Plant response rating, Nutsedge (purple nutsedge; [4]): 0 | Plant response rating, Nutsedge (purple nutsedge; [5]): 0 | Nutsedge plant response rating (purple nutsedge; [6]): 0 | Nutsedge plant response rating (purple nutsedge; [7]): 10 | Velvetleaf plant response rating (velvetleaf; [1]): 0 | Velvetleaf plant response rating (velvetleaf; [2]): 0 | Plant response rating, Velvetleaf (velvetleaf; [4]): 4 | Plant response rating, Velvetleaf (velvetleaf; [5]): 0 | Velvetleaf plant response rating (velvetleaf; [6]): 0 | Velvetleaf plant response rating (velvetleaf; [7]): 0 | Morningglory plant response rating (morningglory; [1]): 0 | Morningglory plant response rating (morningglory; [2]): 0 | Plant response rating, Morningglory (morningglory; [4]): 5 | Plant response rating, Morningglory (morningglory; [5]): 0 | Morningglory plant response rating (morningglory; [6]): 0 | Morningglory plant response rating (morningglory; [7]): 0 | Giant foxtail plant response rating (giant foxtail; [1]): 2 | Plant response rating, Giant foxtail (giant foxtail; [4]): 8 | Plant response rating, Giant foxtail (giant foxtail; [5]): 0 | Giant foxtail plant response rating (giant foxtail; [6]): 5 | Giant foxtail plant response rating (giant foxtail; [7]): 8 | B. signalgrass plant response rating (surinam grass; [1]): 0 | B. signalgrass plant response rating (surinam grass; [2]): 0 | B. signalgrass plant response rating (surinam grass; Postemergence, Rate 250 g/ha, scale 0 to 10, 0 no effect, 10 complete control): 0 | Plant response rating, B. signalgrass (surinam grass; [4]): 0 | Plant response rating, B. signalgrass (surinam grass; [5]): 0 | B. signalgrass plant response rating (surinam grass; [6]): 0 | B. signalgrass plant response rating (surinam grass; [8]): 0 | B. signalgrass plant response rating (surinam grass; [9]): 0 | Plant response rating, Bedstraw (bedstraw; [4]): 9 | Plant response rating, Bedstraw (bedstraw; [5]): 0 | Bedstraw plant response rating (bedstraw; [6]): 0 | Bedstraw plant response rating (bedstraw; [8]): 0 | Bedstraw plant response rating (bedstraw; [9]): 4
